The text below walks through data of ChEMBL document CHEMBL1148690, “Binding of ring-substituted indole-3-acetic acids to human serum albumin” (Bioorg Med Chem, 2007).

The logP is a log measure of how a compound divides between an organic and an aqueous phase.

Data set [1] in a line: Octanol-water partition coefficient, log Kow of the compound.
The target in the next data set is Albumin (Homo sapiens, UniProt P02768). Put plainly: Binding affinity to human serum albumin. Particulars: isolated protein.
Albumin, sequence (P02768 whole entry): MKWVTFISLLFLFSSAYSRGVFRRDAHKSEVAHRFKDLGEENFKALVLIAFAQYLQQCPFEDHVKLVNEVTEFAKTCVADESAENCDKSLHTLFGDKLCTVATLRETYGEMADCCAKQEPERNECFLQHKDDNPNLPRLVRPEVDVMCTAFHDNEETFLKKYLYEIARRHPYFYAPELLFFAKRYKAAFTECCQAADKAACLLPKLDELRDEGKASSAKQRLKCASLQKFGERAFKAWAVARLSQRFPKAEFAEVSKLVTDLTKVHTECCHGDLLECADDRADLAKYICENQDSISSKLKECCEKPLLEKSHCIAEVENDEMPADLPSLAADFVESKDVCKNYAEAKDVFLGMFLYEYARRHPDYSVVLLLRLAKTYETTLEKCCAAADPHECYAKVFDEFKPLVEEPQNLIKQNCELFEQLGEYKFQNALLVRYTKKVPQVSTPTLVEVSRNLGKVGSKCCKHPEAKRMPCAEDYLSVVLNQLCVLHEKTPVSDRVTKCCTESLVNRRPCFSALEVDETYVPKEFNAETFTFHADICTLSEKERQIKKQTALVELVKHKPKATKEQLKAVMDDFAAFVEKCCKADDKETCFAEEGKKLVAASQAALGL

Take `CCc1[nH]c2ccccc2c1CC(=O)O`: the logP in data set [1] amounted to 2.09. In addition, on Albumin, the logKA was 0.031.
Consider `Cc1cccc2[nH]cc(CC(=O)O)c12`, for which, in data set [1], the logP came to 1.84. At Albumin, this molecule showed a logKA of 0.155.
Consider `O=C(O)Cc1c[nH]c2c(Cl)cc(Cl)cc12`, for which, in data set [1], the logP worked out at 3.42. Besides, the logKA on Albumin was determined as 0.983.
Taken in the same sequence, the figures for `CCOC(=O)Cc1c[nH]c2ccccc12` were 2.34 and 0.292.
With `CCCc1ccc2[nH]cc(CC(=O)O)c2c1`, the logP in data set [1] was found to be 3.21. The molecule also showed a logKA at Albumin of 0.809.
As to `Cc1ccc2c(CC(=O)O)c[nH]c2c1`, in data set [1], the logP is 1.96. The logKA at Albumin came to 0.689.
As for `Cc1cccc2c(CC(=O)O)c[nH]c12`, the logP in data set [1] was 1.95. On Albumin, this molecule showed a logKA of 0.288.
Taken in the same sequence, the figures for `O=C(O)Cc1c[nH]c2ccc(Cl)c(Cl)c12` were 2.92 and 0.799.
Regarding `O=C(O)Cc1c[nH]c2c(Cl)ccc(Cl)c12`, in data set [1], the logP turned out to be 3.02. Further, the logKA at Albumin was found to be 0.84.
In data set [1], `O=C(O)Cc1c[nH]c2cccc(Cl)c12` returned a logP of 2.13. Also, at Albumin, the logKA is 0.458.
On the same counts, the results for `O=C(O)Cc1c[nH]c2ccc(Cl)cc12` are 2.38 and 0.646.
Turning to `O=C(O)Cc1c[nH]c2c(Cl)cccc12`, in data set [1], the logP amounted to 2.32. Further, the logKA on Albumin is 0.623.
On the same counts, the results for `Cc1[nH]c2ccccc2c1CC(=O)O` are 1.72 and -0.04.
In the case of `O=C(O)Cc1c[nH]c2ccc(OCc3ccccc3)cc12`, the logP in data set [1] turned out to be 3.2.
`CCc1ccc2c(CC(=O)O)c[nH]c2c1` gave a logP in data set [1] of 2.56. The logKA at Albumin was 1.044.
In turn, `O=C(O)Cc1c[nH]c2c(F)cccc12` displayed a logP in data set [1] of 1.81. At Albumin, this molecule returned a logKA of 0.247.
Taken in the same sequence, the figures for `O=C(O)Cc1c[nH]c2cc(Cl)c(Cl)cc12` were 3.2 and 1.436.
On to `O=C(O)Cc1c[nH]c2ncccc12`, for which the logP in data set [1] amounted to 0.45. Moreover, the logKA at Albumin is -0.314.
In turn, `O=C(O)Cc1c[nH]c2ccc(O)cc12` yielded a logP in data set [1] of 0.74. In addition, the logKA on Albumin is given as -0.125.
The molecule `CCCc1[nH]c2ccccc2c1CC(=O)O` came in with a lipophilicity (logP) in data set [1] of 2.56. At Albumin, this molecule gave a logKA of 0.15.
Turning to `CCc1cccc2[nH]cc(CC(=O)O)c12`, in data set [1], the logP was determined as 2.33. Also, the logKA on Albumin came to 0.393.
On to `CCc1ccc2[nH]cc(CC(=O)O)c2c1`, for which, in data set [1], the logP was found to be 2.54. For the same molecule, the logKA on Albumin was determined as 0.49.
As to `O=C(O)Cc1c[nH]c2c(Cl)c(Cl)ccc12`, the logP in data set [1] stood at 3.16. The molecule further registered a logKA at Albumin of 1.09.
Consider `CCCCc1ccc2[nH]cc(CC(=O)O)c2c1`, for which the logP in data set [1] was found to be 3.89. Moreover, at Albumin, the logKA is listed as 1.05.
The molecule `Cc1ccc2[nH]cc(CC(=O)O)c2c1` came in with a logP in data set [1] of 1.99. This molecule returned a logKA at Albumin of 0.217.
In data set [1], `O=C(O)Cc1c[nH]c2cc(F)ccc12` came in with a logP of 1.74. This molecule yielded a logKA at Albumin of 0.308.
On the same counts, the results for `O=C(O)Cc1c[nH]c2cc(Cl)cc(Cl)c12` are 3.29 and 1.082.
`O=C(O)Cc1c[nH]c2ccc(F)cc12`: the logP in data set [1] turned out to be 1.72. Moreover, the logKA at Albumin turned out to be 0.261.
As to `Cn1cc(CC(=O)O)c2ccccc21`, the logP in data set [1] was 1.87. Also, on Albumin, the logKA is 0.243.
On the same counts, the results for `COc1ccc2[nH]cc(CC(=O)O)c2c1` are 1.23 and 0.185.
In the case of `O=C(O)Cc1c[nH]c2cc(Cl)ccc12`, the logP in data set [1] was found to be 2.41. Besides, at Albumin, the logKA is reported as 0.863.
Taken in the same sequence, the figures for `O=C(O)Cc1c[nH]c2cccc(F)c12` were 1.66 and 0.305.
The molecule `COc1ccc2[nH]c(C)c(CC(=O)O)c2c1` [DESCHLOROBENZOYL INDOMETHACIN] had a logP in data set [1] of 2.14. The logKA at Albumin came out at 0.228.
Molecule `O=C(O)Cc1c[nH]c2ccccc12` [INDOLE-3-ACETIC ACID] yielded a logP in data set [1] of 1.42. In addition, the logKA on Albumin is 0.102.
